“And” between values parts separate entries of the source, which are not always exact repeats. Identical values can stand only once.
Columns and labels:
AR [1] = molecular target: T1, AR (Homo sapiens, UniProt P10275, T878A); test: AR down-regulation, western blot analysis in LNCaP cells; assay type: cell-based; conditions: at 15 μM, 24 h
T1 construct: host or cells: LNCaP
T1 sequence (P10275 1-920 T878A): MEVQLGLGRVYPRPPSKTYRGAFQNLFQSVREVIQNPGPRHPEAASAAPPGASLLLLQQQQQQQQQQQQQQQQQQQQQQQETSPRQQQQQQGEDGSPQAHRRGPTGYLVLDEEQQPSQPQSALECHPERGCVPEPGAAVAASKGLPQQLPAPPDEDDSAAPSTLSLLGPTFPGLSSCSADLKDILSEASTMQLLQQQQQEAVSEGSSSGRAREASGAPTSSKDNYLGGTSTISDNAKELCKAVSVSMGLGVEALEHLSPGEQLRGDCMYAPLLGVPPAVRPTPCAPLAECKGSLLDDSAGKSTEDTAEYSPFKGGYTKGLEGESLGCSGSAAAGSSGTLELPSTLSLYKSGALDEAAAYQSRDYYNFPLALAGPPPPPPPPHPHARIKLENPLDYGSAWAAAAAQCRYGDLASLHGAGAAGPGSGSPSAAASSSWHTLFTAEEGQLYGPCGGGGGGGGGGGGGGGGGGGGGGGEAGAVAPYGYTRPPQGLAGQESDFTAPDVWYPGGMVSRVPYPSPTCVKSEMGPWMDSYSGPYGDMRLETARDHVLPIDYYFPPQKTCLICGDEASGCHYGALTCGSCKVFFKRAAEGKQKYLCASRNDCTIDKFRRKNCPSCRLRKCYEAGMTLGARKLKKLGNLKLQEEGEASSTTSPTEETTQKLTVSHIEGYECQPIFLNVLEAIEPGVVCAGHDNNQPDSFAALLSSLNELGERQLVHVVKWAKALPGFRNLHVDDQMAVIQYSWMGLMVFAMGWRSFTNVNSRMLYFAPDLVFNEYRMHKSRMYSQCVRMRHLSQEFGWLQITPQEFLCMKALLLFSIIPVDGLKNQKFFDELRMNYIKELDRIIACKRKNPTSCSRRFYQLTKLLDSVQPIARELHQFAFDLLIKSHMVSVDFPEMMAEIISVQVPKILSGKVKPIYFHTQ
Description: (§1) For the Western blot analyses, LNCaP or CWR22v1 prostate cancer cells were cultured. The cells were then treated with the indicated compounds and whole cell lysates were prepared using RIPA lysis buffer (Sigma Aldrich) and protease and phosphatase inhibitors (Sigma Aldrich). All of the antibodies were ordered from cell signaling technology. Protein content was determined using the Bradford Assay (Bio-Rad, Hercules, Calif., USA). Protein was subjected to SDS-PAGE and transferred onto nitrocellulosemembrane. Membranes were then incubated with secondary antibody (cell signaling technology) at room temperature for 1 hour. Bands were visualized by chemiluminescence (Millipore). Protein expression was normalized to β-actin and densitometry was carried out using Image J or ImageQuant 5.0 (Molecular Dynamics, Sunnyvale, Calif., USA). CWR22Rv1 cells were used for endogenous levels of splice variant AR-3. Protein levels were analyzed with respective antibodies; full length AR and β-actin antibodies were purchased from cell signaling, antibody specific for splice variant AR-3 was obtained from Dr. Yun Qiu, University of Maryland, School of Medicine, Baltimore.

LNCaP cells = test: MTT colorimetric anti-proliferative assay; assay type: cell-based, human
Description: The cells were treated for 7 days with renewal of test compound and media on day 4. On the 7th day, medium was renewed and MTT (3-(4,5-dimethylthiazol-2-yl)-2,5-diphenyl-2H-tetrazolium bromide) (Sigma, St Louis, Mo., USA) solution (0.5 mg MTT per ml of media) was added to the medium such that the ratio of MTT: medium was 1:10. The cells were incubated with MTT for 2 hours. The medium was then aspirated and DMSO was added to solubilize the violet MTT-formazan product.

human CYP17A1 (CYP171dH) = molecular target: T2, human CYP17A1 (CYP171dH) (Homo sapiens, UniProt P05093); test: CYP17 inhibition studies; assay type: biochemical; conditions: each in duplicate, from dose-response curves
T2 sequence (P05093 with tags, fused parts or gaps limits assumed): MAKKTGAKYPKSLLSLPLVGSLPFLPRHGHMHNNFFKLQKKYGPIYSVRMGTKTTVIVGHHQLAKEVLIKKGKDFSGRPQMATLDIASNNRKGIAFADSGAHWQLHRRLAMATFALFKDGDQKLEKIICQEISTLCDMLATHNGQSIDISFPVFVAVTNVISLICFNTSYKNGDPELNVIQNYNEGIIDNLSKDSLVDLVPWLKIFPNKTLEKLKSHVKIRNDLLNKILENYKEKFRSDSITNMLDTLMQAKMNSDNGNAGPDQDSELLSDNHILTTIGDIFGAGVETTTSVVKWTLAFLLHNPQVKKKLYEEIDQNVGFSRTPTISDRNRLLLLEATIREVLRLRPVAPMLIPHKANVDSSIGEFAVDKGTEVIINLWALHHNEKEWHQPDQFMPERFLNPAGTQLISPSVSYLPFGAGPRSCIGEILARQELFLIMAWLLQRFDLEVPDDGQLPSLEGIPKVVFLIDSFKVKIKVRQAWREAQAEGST
Description: Some compounds were evaluated for their ability to inhibit CYP17 enzyme. A truncated version of human CYP17A1 (CYP171dH) was expressed in E. coli and then purified to homogeneity.

AR in LNCaP cells = molecular target: T3, AR in LNCaP cells (Homo sapiens, UniProt P10275, T878A); test: Whole cell competitive binding assay with [3H]R1881; conditions: read-out: inhibition of [3H]R1881 binding / displacement
T3 sequence (P10275 1-920 T878A): T1 sequence (P10275 1-920 T878A)
Description: The androgen receptor competitive binding assays were performed with the synthetic androgen methyltrienolone [^3H]R1881. […] To determine the kinetics of [^3H]R1881 binding to the LNCaP AR cells were plated (2-3×10^5 cells/well) in 24 well multiwell dishes in steroid-free medium and allowed to attach. […] Following a 2 hour incubation period at 37° C., cells were washed twice with ice-cold DPBS and solubilized in DPBS containing 0.5% SDS and 20% glycerol. Extracts were removed and cell associated radioactivity counted in a scintillation counter. The data was analyzed, including Kd and Bmax determination, by nonlinear regression using Graphpad Prism software (GraphPad Software, Inc, San Diego, Calif.). When the concentration of [^3H]R1881 required to almost saturate AR in both cell lines was established (5.0 nM), the ability of the test compounds (1 nM-10 μM) to displace [^3H]R1881 (5.0 nM) from the receptors was determined as described above. The IC50 of each compound was determined by nonlinear regression with Graphpad Prism software (GraphPad Software, Inc, San Diego, Calif.).

AR-3 (also called AR-V7) = molecular target: T4, AR-3 (also called AR-V7) (Homo sapiens, UniProt P10275); test: Down-regulation of truncated AR splice variant, western blot in CWR22rv1 cells; assay type: cell-based; conditions: CWR22rv1 prostate cancer cell line
T4 construct: endogenous in cells; host or cells: CWR22Rv1
T4 sequence (P10275 1-644 isoform P10275-3): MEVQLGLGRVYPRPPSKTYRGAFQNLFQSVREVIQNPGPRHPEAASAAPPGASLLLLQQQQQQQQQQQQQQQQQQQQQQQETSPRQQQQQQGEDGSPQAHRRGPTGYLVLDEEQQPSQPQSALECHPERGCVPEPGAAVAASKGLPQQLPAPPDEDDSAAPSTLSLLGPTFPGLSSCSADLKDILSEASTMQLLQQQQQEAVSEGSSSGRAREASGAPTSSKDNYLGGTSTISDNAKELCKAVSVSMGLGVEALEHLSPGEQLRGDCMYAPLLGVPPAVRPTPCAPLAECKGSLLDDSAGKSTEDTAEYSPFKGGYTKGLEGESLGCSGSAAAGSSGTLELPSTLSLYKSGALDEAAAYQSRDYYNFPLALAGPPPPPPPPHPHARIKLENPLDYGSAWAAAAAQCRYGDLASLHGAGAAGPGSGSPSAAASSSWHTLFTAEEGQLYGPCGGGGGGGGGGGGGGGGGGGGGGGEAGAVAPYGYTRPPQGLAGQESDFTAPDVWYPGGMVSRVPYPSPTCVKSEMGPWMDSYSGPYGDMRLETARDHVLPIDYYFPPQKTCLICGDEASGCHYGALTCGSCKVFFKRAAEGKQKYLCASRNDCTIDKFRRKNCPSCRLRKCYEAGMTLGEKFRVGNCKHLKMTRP
Description: (§2) Due to the potential implication of AR splice variants lacking the ligand-binding domain (truncated AR) in driving the progression of CRPC, the effects of the compounds on the down-regulation of AR-3 (also called AR-V7) were determined.
as §1, with “USA).” for “USA). CWR22Rv1 cells were used for endogenous levels of splice variant AR-3. Protein levels were analyzed with respective antibodies; full length AR and β-actin antibodies were purchased from cell signaling, antibody specific for splice variant AR-3 was obtained from Dr. Yun Qiu, University of Maryland, School of Medicine, Baltimore.”

full-length AR = test: Down-regulation of full-length AR, western blot in CWR22rv1 cells; assay type: cell-based, human; conditions: CWR22rv1 prostate cancer cell line
Description: as §2
as §1, with “USA).” for “USA). CWR22Rv1 cells were used for endogenous levels of splice variant AR-3. Protein levels were analyzed with respective antibodies; full length AR and β-actin antibodies were purchased from cell signaling, antibody specific for splice variant AR-3 was obtained from Dr. Yun Qiu, University of Maryland, School of Medicine, Baltimore.”

AR [2] = molecular target: T1, AR; test: Immunocytochemical analysis of AR expression in LNCaP cells; assay type: cell-based; conditions: 5 μM for 48 h

Compound: C[C@]12CC[C@H](OC(=O)n3ccnc3)CC1=CC[C@@H]1[C@@H]2CC[C@]2(C)C(n3cnc4ccccc43)=CC[C@@H]12 [Compound 47, 3β-(1H-Imidazole-1-carboxylate)-17-(1H-benzimidazol-1-yl)-androsta-5,16-diene]
- AR down-regulation, fold more active than compound 5 (AR [1]): greater than 8 fold
- GI50 (LNCaP cells; Homo sapiens, LNCaP, 168 h, LNCaP, MTT, 7 days, Table 4, read-out: GI50 of C-3 modified compounds): 0.87 µM
- fold superior anti-proliferative activity (LNCaP cells; relative to compound 5): ~4 fold
- IC50 (human CYP17A1 (CYP171dH)): 93.7 to 258 µM and 122 µM
- inhibition at 30 µM (AR in LNCaP cells): 20%
- down-regulation of truncated AR (AR-3) (AR-3 (also called AR-V7)): significant down-regulation
- down-regulation of full-length AR (full-length AR): significant down-regulation
- AR levels in the nucleus (AR [2]): significant decrease in AR levels in the nucleus
- melting point: 194 to 196 °C
